According to the NIST ThermoML archive (doi:10.1021/je025566c):
Numbers after ± are expanded uncertainties.

Conditions: Liquid

Oc1ccccc1 [phenol]
Conditions	vapor or sublimation pressure [kPa]
353.15 K	2.037 ± 0.041
373.15 K	5.541 ± 0.042
393.15 K	13.15 ± 0.045

CCOCCO [2-ethoxyethan-1-ol]
Conditions	vapor or sublimation pressure [kPa]
333.15 K	5.3 ± 0.042
343.15 K	8.646 ± 0.044
353.15 K	13.62 ± 0.046

CCCCOC=O [butyl methanoate]
Conditions	vapor or sublimation pressure [kPa]
313.16 K	7.978 ± 0.034
318.33 K	10.19 ± 0.035
323.32 K	12.79 ± 0.036
328.57 K	16.08 ± 0.037
333.14 K	19.5 ± 0.039
333.15 K	19.5 ± 0.039
343.14 K	29.1 ± 0.044
343.15 K	29.1 ± 0.044
353.14 K	42.24 ± 0.051
353.15 K	42.24 ± 0.051
358.67 K	51.34 ± 0.056

CC(O)c1ccccc1 (centres undefined) [1-phenylethanol]
Conditions	vapor or sublimation pressure [kPa]
353.15 K	0.76 ± 0.031
358.41 K	1.033 ± 0.031
362.36 K	1.296 ± 0.031
366.37 K	1.613 ± 0.032
371.46 K	2.112 ± 0.032
373.15 K	2.301 ± 0.032
377.83 K	2.909 ± 0.032
382.98 K	3.728 ± 0.032
387.28 K	4.557 ± 0.033
393.15 K	5.934 ± 0.033
393.34 K	5.985 ± 0.033
398.01 K	7.325 ± 0.034
